Test results as given in patent publication US20240262826A1, “WILD TYPE KIT INHIBITORS” (Blueprint Medicines Corporation, priority 2022, published 2024).

Key:
wild type c-kit [1] = molecular target: T1, wild type c-kit (Homo sapiens (Human), UniProt P10721); test: MSD Phospho c-Kit (Tyr721) Assay Whole Cell Lysate Kit in SCF-stimulated M-07e cells (pKIT assay, marked *); type: cell-based; details: Meso Scale Discovery (MSD) assay (values marked *)
Procedure: The ability of compounds of the disclosure (described herein as test compounds) to inhibit autophosphorylation of wild type c-kit was measures using either a PathScan phospho c-kit (Tyr719) sandwich ELISA (CST #7298) or a Phospho c-Kit (Tyr721) Assay Whole Cell Lysate Kit (MSD: 515DPD/catalog number K15119D-2).
For the MSD Phospho c-Kit (Tyr721) Assay Whole Cell Lysate Kit: M-07e cells were maintained in Iscove's Modified Dulbecco's Medium (IMDM) media supplemented with 10% FBS, 5 ng/ml granulocyte-macrophage colony-stimulating factor (GM-CSF) and 100 units/mL Penicillin-Streptomycin, and grown in a 37° C., 5% CO2 in a humidified tissue culture incubator. M-07e cells were washed with phenol red-free, serum-free, GM-CSF-free IMDM and seeded in the same media at 100,000 cells well in a volume of 50 ul in a 96-well U-bottom plate. The cells were incubated for 4 hours, followed by the addition of test compound at a final DMSO concentration of 0.25% for 60 min at 37° C. to generate an 8-point dose concentration series of test compounds. The cells were stimulated with 50 ng/ml human SCF for 10 min at room temperature. Cells were then lysed by the addition of 16.5 ul of PerkinElmer 5× AlphaLISA Lysis Buffer supplemented with Cell Signaling Technologies protease/phosphatase inhibitor. Lysis was encouraged by shaking at 4° C. for 30 minutes.
25 ul of lysate was transferred to the MSD plate and the plate was shaken at 700 rpm at room temperature for one hour, followed by washing 3 times with Tris wash buffer. Next, 25 ul of detection antibody solution (diluted from 50× stock in antibody dilution buffer) was added. After shaking at 700 rpm at room temperature for one hour, the plate was washed 3 times with Tris wash buffer. The plate was then read on MSD Sector Imager immediately after 150 ul of reading buffer added to each well.
An IC50 was calculated using a 4-parameter logistic nonlinear regression.

wild type c-kit [2] = molecular target: T1, wild type c-kit; test: PathScan phospho c-kit (Tyr719) sandwich ELISA in SCF-stimulated M-07e cells (pKIT assay); type: cell-based; details: ELISA assay (values not marked *)
How it was run: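 Tyr719-phosphorylated c-kit was measured by colorimetric (TMB) sandwich ELISA in lysates of M-07e cells. Cells were starved 4 h without serum or GM-CSF, dosed 60 min at 37 °C with compound (8 points, duplicate, 0.25% DMSO), and stimulated 10 min with human SCF (500 ng/mL as added). IC50 values came from 4-parameter logistic regression.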

[3] = molecular target: human P-glycoprotein (P-gp, MDR1) (Homo sapiens (Human), UniProt P08183); test: MDCK-MDR1 cell monolayer drug transport assay (P-gp efflux ratio); type: in vitro ADME; details: pH 7.4, MDCK-MDR1 cells, 1 uM concentration of compound, read-out: Pgp Efflux Ratio, 1 uM
How it was run: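 P-gp substrate potential tested in MDCK-MDR1 monolayers on Transwell supports, cultured 4-8 days; monolayers with TEER <42 ohms·cm2 discarded. Transport run in HBSS (10 mM HEPES, pH 7.4) at 37° C with compound working solution at 1 μM.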

T1 sequence (P10721 26-976): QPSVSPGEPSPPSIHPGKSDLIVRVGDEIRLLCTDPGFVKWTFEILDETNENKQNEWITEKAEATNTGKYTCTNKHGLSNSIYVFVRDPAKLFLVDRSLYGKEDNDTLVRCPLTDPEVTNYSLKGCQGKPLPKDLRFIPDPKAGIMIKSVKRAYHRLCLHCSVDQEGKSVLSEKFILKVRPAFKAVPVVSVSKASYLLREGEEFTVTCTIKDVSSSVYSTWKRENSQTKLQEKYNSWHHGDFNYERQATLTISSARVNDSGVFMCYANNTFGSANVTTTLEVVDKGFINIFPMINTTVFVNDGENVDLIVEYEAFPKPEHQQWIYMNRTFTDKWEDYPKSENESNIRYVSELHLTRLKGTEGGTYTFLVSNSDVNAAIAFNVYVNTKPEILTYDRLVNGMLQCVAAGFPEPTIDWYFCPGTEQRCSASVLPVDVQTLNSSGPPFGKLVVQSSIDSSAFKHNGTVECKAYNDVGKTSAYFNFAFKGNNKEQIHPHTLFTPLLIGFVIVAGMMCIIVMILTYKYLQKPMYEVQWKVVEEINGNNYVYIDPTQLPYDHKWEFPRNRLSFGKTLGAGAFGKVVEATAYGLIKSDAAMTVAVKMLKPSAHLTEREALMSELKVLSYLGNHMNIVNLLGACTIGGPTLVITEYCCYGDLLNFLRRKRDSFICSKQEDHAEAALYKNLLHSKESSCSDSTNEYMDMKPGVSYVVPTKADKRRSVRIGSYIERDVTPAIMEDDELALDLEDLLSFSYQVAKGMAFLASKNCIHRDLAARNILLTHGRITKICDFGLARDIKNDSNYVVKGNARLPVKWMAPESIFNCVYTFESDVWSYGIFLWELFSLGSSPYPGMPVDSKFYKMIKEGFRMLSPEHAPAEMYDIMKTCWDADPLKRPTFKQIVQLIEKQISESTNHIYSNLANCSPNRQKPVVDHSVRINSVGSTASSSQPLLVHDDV
human P-glycoprotein (P-gp, MDR1), sequence (P08183 whole entry): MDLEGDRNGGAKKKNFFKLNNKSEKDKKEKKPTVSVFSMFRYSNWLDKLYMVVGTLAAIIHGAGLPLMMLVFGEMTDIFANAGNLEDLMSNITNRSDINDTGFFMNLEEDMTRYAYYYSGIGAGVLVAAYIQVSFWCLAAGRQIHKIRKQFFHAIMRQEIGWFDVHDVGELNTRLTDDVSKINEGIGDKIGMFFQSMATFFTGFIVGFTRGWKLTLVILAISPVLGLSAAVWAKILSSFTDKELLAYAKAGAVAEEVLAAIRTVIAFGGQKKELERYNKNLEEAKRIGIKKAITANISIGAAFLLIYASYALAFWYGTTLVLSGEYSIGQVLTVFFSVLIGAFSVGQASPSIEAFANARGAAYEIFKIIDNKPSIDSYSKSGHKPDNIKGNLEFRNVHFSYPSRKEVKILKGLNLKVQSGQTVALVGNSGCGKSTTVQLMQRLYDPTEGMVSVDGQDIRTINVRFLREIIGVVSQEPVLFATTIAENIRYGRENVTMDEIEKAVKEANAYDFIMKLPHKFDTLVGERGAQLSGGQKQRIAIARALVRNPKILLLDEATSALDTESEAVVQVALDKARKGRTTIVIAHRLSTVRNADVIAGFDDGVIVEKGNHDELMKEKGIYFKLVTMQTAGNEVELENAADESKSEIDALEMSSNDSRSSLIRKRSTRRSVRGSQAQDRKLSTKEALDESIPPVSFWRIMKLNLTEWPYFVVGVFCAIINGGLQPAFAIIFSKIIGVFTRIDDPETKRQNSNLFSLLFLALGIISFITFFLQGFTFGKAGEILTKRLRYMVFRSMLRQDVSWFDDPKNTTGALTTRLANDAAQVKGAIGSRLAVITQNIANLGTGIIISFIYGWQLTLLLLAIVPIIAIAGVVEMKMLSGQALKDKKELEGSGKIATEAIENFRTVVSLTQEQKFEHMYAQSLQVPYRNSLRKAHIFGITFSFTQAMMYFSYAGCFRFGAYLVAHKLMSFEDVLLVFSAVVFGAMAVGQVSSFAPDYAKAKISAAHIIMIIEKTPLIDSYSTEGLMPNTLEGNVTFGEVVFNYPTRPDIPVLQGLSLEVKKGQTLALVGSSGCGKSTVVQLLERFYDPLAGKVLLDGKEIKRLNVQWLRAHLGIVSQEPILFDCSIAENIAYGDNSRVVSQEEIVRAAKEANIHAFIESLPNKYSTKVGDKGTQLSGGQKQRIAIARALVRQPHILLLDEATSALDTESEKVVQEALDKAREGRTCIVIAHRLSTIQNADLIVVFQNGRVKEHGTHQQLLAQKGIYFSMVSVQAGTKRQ

IC50 (wild type c-kit [1])	IC50 (wild type c-kit [2])	efflux ratio at 2 h, 1 µM [3]	SMILES
	0.1 nM	13.5	COC[C@@H](O)Cn1cc(-c2ccn3ncc(C(=O)Nc4cc(-c5nnn(C6CC6)n5)ccc4C)c3c2)c(C2CC2)n1 [Example 243, (S)-5-(3-cyclopropyl-1-(2-hydroxy-3-methoxypropyl)-1H-pyrazol-4-yl)-N-(5-(2-cyclopropyl-2H-tetrazol-5-yl)-2-methylphenyl)pyrazolo[1,5-a]pyridine-3-carboxamide]
	0.8 nM	116	Cc1nnn(-c2ccc(C)c(NC(=O)c3cnn4ccc(-c5cn(C[C@H]6CNCCO6)nc5C)cc34)c2)n1 [Example 230, (R)-5-(3-methyl-1-(morpholin-2-ylmethyl)-1H-pyrazol-4-yl)-N-(2-methyl-5-(5-methyl-2H-tetrazol-2-yl)phenyl)pyrazolo[1,5-a]pyridine-3-carboxamide]
	0.4 nM	4.1	Cc1ccc(-c2nnn(C3CC3)n2)cc1NC(=O)c1cnn2ccc(-c3c(C)nn(CCO)c3C)cc12 [Example 208, N-(5-(2-cyclopropyl-2H-tetrazol-5-yl)-2-methylphenyl)-5-(1-(2-hydroxyethyl)-3,5-dimethyl-1H-pyrazol-4-yl)pyrazolo[1,5-a]pyridine-3-carboxamide]
	1.4 nM	2.9	COC[C@](C)(O)Cn1cc(-c2ccn3ncc(C(=O)Nc4cc(-c5nnn(C6CC6)n5)ccc4C)c3c2)cn1 (single isomer, unassigned) [Example 267, (R)-N-(5-(2-cyclopropyl-2H-tetrazol-5-yl)-2-methylphenyl)-5-(1-(2-hydroxy-3-methoxy-2-methylpropyl)-1H-pyrazol-4-yl)pyrazolo[1,5-a]pyridine-3-carboxamide or (S)-N-(5-(2-cyclopropyl-2H-tetrazol-5-yl)-2-methylphenyl)-5-(1-(2-hydroxy-3-methoxy-2-methylpropyl)-1H-pyrazol-4-yl)pyrazolo[1,5-a]pyridine-3-carboxamide]
	4 nM	3.4	Cc1cnn(-c2ccc(C)c(NC(=O)c3cnn4ccc(-c5cnn(CCO)c5)cc34)c2)n1 [Example 57, 5-(1-(2-hydroxyethyl)-1H-pyrazol-4-yl)-N-(2-methyl-5-(4-methyl-2H-1,2,3-triazol-2-yl)phenyl)pyrazolo[1,5-a]pyridine-3-carboxamide]
	6.9 nM	4.3	Cc1nnn(-c2ccc(C)c(NC(=O)c3cnn4ccc(-c5cnn(CC(C)(C)O)c5)cc34)c2)n1 [Example 209, 5-(1-(2-hydroxy-2-methylpropyl)-1H-pyrazol-4-yl)-N-(2-methyl-5-(5-methyl-2H-tetrazol-2-yl)phenyl)pyrazolo[1,5-a]pyridine-3-carboxamide]
	0.9 nM	7	Cc1nn(CC2(O)CCOCC2)cc1-c1ccn2ncc(C(=O)Nc3cc(-n4nnc([C@H]5C[C@@H]5F)n4)ccc3Cl)c2c1 (single isomer, unassigned) [Example 272, N-(2-chloro-5-(5-((1R,2S)-2-fluorocyclopropyl)-2H-tetrazol-2-yl)phenyl)-5-(1-((4-hydroxytetrahydro-2H-pyran-4-yl)methyl)-3-methyl-1H-pyrazol-4-yl)pyrazolo[1,5-a]pyridine-3-carboxamide or N-(2-chloro-5-(5-((1S,2R)-2-fluorocyclopropyl)-2H-tetrazol-2-yl)phenyl)-5-(1-((4-hydroxytetrahydro-2H-pyran-4-yl)methyl)-3-methyl-1H-pyrazol-4-yl)pyrazolo[1,5-a]pyridine-3-carboxamide]
	1.7 nM	3.3	Cc1ccc(-n2nnc(C3CC3)n2)cc1NC(=O)c1cnn2ccc(-c3cnn(CC(C)(C)O)c3)cc12 [Example 225, N-(5-(5-cyclopropyl-2H-tetrazol-2-yl)-2-methylphenyl)-5-(1-(2-hydroxy-2-methylpropyl)-1H-pyrazol-4-yl)pyrazolo[1,5-a]pyridine-3-carboxamide]

The next lines start with the compound.

SMILES	IC50 (wild type c-kit [1])	IC50 (wild type c-kit [2])	efflux ratio at 2 h, 1 µM [3]
Cc1ccc(-c2nnn(C3CC(F)(F)C3)n2)cc1NC(=O)c1cnn2ccccc12 [Example 5, N-(5-(2-(3,3-difluorocyclobutyl)-2H-tetrazol-5-yl)-2-methylphenyl)pyrazolo[1,5-a]pyridine-3-carboxamide]	5 nM		
COC[C@@H]1CCN1c1ccn2ncc(C(=O)Nc3cc(-c4nnn(C5CN(C(=O)OC)C5)n4)ccc3C)c2c1 (stereo in doubt) [Example 85, methyl (S)-3-(5-(3-(5-(2-(methoxymethyl)azetidin-1-yl)pyrazolo[1,5-a]pyridine-3-carboxamido)-4-methylphenyl)-2H-tetrazol-2-yl)azetidine-1-carboxylate or methyl (R)-3-(5-(3-(5-(2-(methoxymethyl)azetidin-1-yl)pyrazolo[1,5-a]pyridine-3-carboxamido)-4-methylphenyl)-2H-tetrazol-2-yl)azetidine-1-carboxylate]		25 nM	7.1
COCCOCCNc1ccn2ncc(C(=O)Nc3cc(-c4nnn(C5CN(C(=O)OC)C5)n4)ccc3C)c2c1 [Example 146, methyl 3-(5-(3-(5-((2-(2-methoxyethoxy)ethyl)amino)pyrazolo[1,5-a]pyridine-3-carboxamido)-4-methylphenyl)-2H-tetrazol-2-yl)azetidine-1-carboxylate]		88.8 nM	15.4
COCCNc1ccn2ncc(C(=O)Nc3cc(-c4nnn([C@H]5C[C@@H](C(F)(F)F)C5)n4)c(F)cc3C)c2c1 [Example 108, N-(4-fluoro-2-methyl-5-(2-((1s,3s)-3-(trifluoromethyl)cyclobutyl)-2H-tetrazol-5-yl)phenyl)-5-((2-methoxyethyl)amino)pyrazolo[1,5-a]pyridine-3-carboxamide]		11.6 nM	4
COC[C@@H](O)Cn1cc(-c2ccn3ncc(C(=O)Nc4cc(-c5nnn(C6CC6)n5)c(C)cc4Cl)c3c2)cn1 [Example 252, (S)-N-(2-chloro-5-(2-cyclopropyl-2H-tetrazol-5-yl)-4-methylphenyl)-5-(1-(2-hydroxy-3-methoxypropyl)-1H-pyrazol-4-yl)pyrazolo[1,5-a]pyridine-3-carboxamide]		3.7 nM	5.1
Cc1ccc(-c2nnn(C3CC3)n2)cc1NC(=O)c1cnn2ccc(-c3cnn(CC4(O)CCOCC4)c3)cc12 [Example 206, N-(5-(2-cyclopropyl-2H-tetrazol-5-yl)-2-methylphenyl)-5-(1-((4-hydroxytetrahydro-2H-pyran-4-yl)methyl)-1H-pyrazol-4-yl)pyrazolo[1,5-a]pyridine-3-carboxamide]		1.2 nM	22.6
COC(=O)N1CC(c2nnn(-c3ccc(C)c(NC(=O)c4cnn5ccc(N6CCN(C)CC6)cc45)c3)n2)C1 [Example 112, methyl 3-(2-(4-methyl-3-(5-(4-methylpiperazin-1-yl)pyrazolo[1,5-a]pyridine-3-carboxamido)phenyl)-2H-tetrazol-5-yl)azetidine-1-carboxylate]		43.4 nM	15.7
COCCNc1cc2c(C(=O)Nc3cc(-c4nnn(C5CN(C(=O)OC)C5)n4)ccc3C)cnn2cc1Cl [Example 145, methyl 3-(5-(3-(6-chloro-5-((2-methoxyethyl)amino)pyrazolo[1,5-a]pyridine-3-carboxamido)-4-methylphenyl)-2H-tetrazol-2-yl)azetidine-1-carboxylate]		157 nM	6.4
COC(=O)N1CC(n2nnc(-c3ccc(C)c(NC(=O)c4cnn5ccc(NCC(C)(F)F)cc45)c3)n2)C1 [Example 92, methyl 3-(5-(3-(5-((2,2-difluoropropyl)amino)pyrazolo[1,5-a]pyridine-3-carboxamido)-4-methylphenyl)-2H-tetrazol-2-yl)azetidine-1-carboxylate]		22.1 nM	11.4
COC(=O)N1CC(n2nnc(-c3ccc(C)c(NC(=O)c4cnn5ccc(COCC(F)F)cc45)c3)n2)C1 [Example 162, methyl 3-(5-(3-(5-((2,2-difluoroethoxy)methyl)pyrazolo[1,5-a]pyridine-3-carboxamido)-4-methylphenyl)-2H-tetrazol-2-yl)azetidine-1-carboxylate]		18 nM	5.3
